Drawing on publication PMC12040169 (PLOS Biology, 2025), this text covers % viability and viability for 51 molecules.

Several values for one entry are separate records, joined by “and”; a condition that tells them apart may be missing. Equal values may be shown once.

In one data set the test system is HeLa. The settings on record: bulk resorufin, single well, 28.5 h, 10 µM, Bulk resorufin fluorescence.
The nature of the next data set: in vitro. Particulars: human, hela cells, % viability.

What is called viability is a read-out of living cells in per cent, often relative to untreated cells. Take `C[C@@H]1CN2C[C@H](O)CC2CN1Cc1ccccc1C(F)(F)F` (stereo partly drawn) [CBK284556]: the % viability in the data set with HeLa was found to be 100%. The viability at 28.5 h, 10 µM in “in vitro” amounted to 80.7%.
For `C=CCNC(=O)[C@H]1C=CCN1S(=O)(=O)c1cccc2ccccc12` [CBK282440] the same measures were 102% and 91%.
For `C[C@H](Cn1nc2c(cc1=O)CCCCC2)NC(=O)c1cccs1` [CBK284545] the same measures were 85.9% and 101%.
For `CC(C)[C@@H](Cn1c(=O)oc2ccccc21)NC(=O)c1ccco1` [CBK284531] the same measures were 86.1% and 94.1%.
Take `CCOc1ccsc1C(=O)NCc1ccc(OC2CCNCC2)cc1` [CBK036355T]: the % viability in the data set with HeLa turned out to be 114%. Also, the viability at 28.5 h, 10 µM in “in vitro” came to 106%.
For `Cc1oc(C2CC2)cc1C(=O)N[C@H](C)Cn1nnc2ccccc21` [CBK284258] the same measures were 80.8% and 78.1%.
For `COc1ccc(C(NC(=O)Cc2cn3ccsc3n2)C2CC(O)C2)cn1` (stereo not drawn) [CBK306910] the same measures were 97% and 82.2%.
For `CC[C@@H](Cn1ncc2ccccc2c1=O)NC(=O)C1CCC1` [CBK282384] the same measures were 82% and 93.4%.
Consider `O=C1[C@@H]2CCCN2C(=O)c2ccccc2N1Cc1ccccc1F` [CBK282855], for which the % viability in the data set with HeLa was 106%. Further, the viability at 28.5 h, 10 µM in “in vitro” was found to be 93.9%.
For `COc1ccc2c(CN3CC4CCCN4C[C@H]3C)cn(C)c2c1` (stereo partly drawn) [CBK285164] the same measures were 84% and 92.4%.
For `O=C(C1CC1)N1C2CCC(C2)[C@H]1COc1ccc(F)cc1` (stereo partly drawn) [CBK284597] the same measures were 100% and 95%.
For `Nc1nc(Nc2ccccc2)nc(C(F)(F)F)n1` [CBK004712] the same measures were 72% and 89.8%.
`Clc1ccc(COc2cncc(OC3CCN(CCN4CCOCC4)C3)n2)cc1Cl` (stereo not drawn) [CBK084433]: in the data set with HeLa, the % viability was 100%. Besides, the viability at 28.5 h, 10 µM in “in vitro” was determined as 87%.
Take `CCOC(=O)c1[nH]c(C)c(CN2CC3CCCN3C[C@@H]2C)c1C` (stereo partly drawn) [CBK285043]: in the data set on HeLa, the % viability amounted to 105%. Besides, the viability at 28.5 h, 10 µM in “in vitro” amounted to 110%.
In the case of `CCN(CC)CCNC(=O)/C(=N\O)c1ccccn1` [CBK264538], the % viability in the data set with HeLa stood at 93.9%. For the same molecule, the viability at 28.5 h, 10 µM in “in vitro” is 90.6%.
For `COc1ccccc1N1C(=O)CC(=O)N=C1S` [CBK288517] the same measures were 89.3% and 89.5%.
`O=C(O)C(Cc1ccc(O)cc1)N1C(=O)c2ccccc2C1=O` (stereo not drawn) [CBK262479]: in the data set on HeLa, the % viability was determined as 80.4%. The viability at 28.5 h, 10 µM in “in vitro” came out at 84.1%.
Regarding `S=C(Nc1ccc(C2=NCCO2)cc1)Nc1ccc(Cl)c(Cl)c1` [CBK022344], in the data set with HeLa, the % viability amounted to 106%. Also, the viability at 28.5 h, 10 µM in “in vitro” was 90.6%.
For `O=C(CC1C(=O)NC(=O)N1Cc1ccccc1)NCc1ccccc1` (stereo not drawn) [CBK288083] the same measures were 94.6% and 87.8%.
`O=C(O)c1cccc2c1C(=O)N(Cc1ccccc1)C2` [CBK286872]: the % viability in the data set with HeLa amounted to 89.1%. In the data set “in vitro”, the viability at 28.5 h, 10 µM came out at 91%.
For `C[C@@H]1CN2CCCC2CN1CC1=Cc2ccccc2OC1` (stereo partly drawn) [CBK284552] the same measures were 103% and 88.6%.
Consider `O=C(O)CCS(=O)(=O)c1nc(-c2ccccc2)cc(C(F)(F)F)n1` [CBK268832], for which, in the data set on HeLa, the % viability is 102%. In the data set “in vitro”, the viability at 28.5 h, 10 µM turned out to be 104%.
For `CC(=O)NCc1cccc(-c2cc(C(=O)Nc3ccc4c(c3)OCCO4)cnc2N2CCOCC2)c1` [CBK159355C] the same measures were 102% and 90.1%.
Regarding `O=C(O)CCS(=O)(=O)c1cccc2cccnc12` [CBK131911], the % viability with HeLa was determined as 92.5%. Besides, the viability at 28.5 h, 10 µM in “in vitro” is 102%.
For `CS(=O)(=O)Nc1cc2cccnc2nc1-c1ccc2c(c1)CCO2` [CBK085690] the same measures were 102% and 104%.
For `CC(C)(C)OC(=O)N1CCC[C@@H](CNC(=O)c2cccs2)C1` [CBK284332] the same measures were 90.2% and 104%.
For `O=C(C1CC1)N1CCC[C@H]1Cn1nc(-c2cccs2)ccc1=O` [CBK284250] the same measures were 80.9% and 76.7%.
Regarding `O=C(CN1C(=O)[C@H]2CCCN2C(=O)c2ccccc21)NCC1CC1` [CBK282853], the % viability in the data set with HeLa was determined as 88.6%. In “in vitro”, the viability at 28.5 h, 10 µM turned out to be 87.6%.
For `O=C(Cn1c([C@H]2CCCO2)cc2cccnc21)NC1CC1` [CBK282274] the same measures were 102% and 94.8%.
In the case of `COc1nccc(NC(c2cnn(C)c2)[C@H]2C[C@H](O)C2)c1C#N` (stereo partly drawn) [CBK307283], the % viability in the data set on HeLa was determined as 91.1%. Moreover, the viability at 28.5 h, 10 µM in the data set “in vitro” worked out at 94%.
For the molecule `C[C@H](Cn1c(=O)oc2ccccc21)NC(=O)c1cccs1` [CBK284532], in the data set on HeLa, the % viability was determined as 90.7%. Also, the viability at 28.5 h, 10 µM in the data set “in vitro” worked out at 85%.
For `Cc1cc(CN2CC3CCCN3C[C@@H]2C)c(C)n1-c1ccccn1` (stereo partly drawn) [CBK285431] the same measures were 98.1% and 87%.
Turning to `COc1ccc2[nH]cc(CCNC(=O)Cc3c[nH]c4ccc(O)cc34)c2c1` [CBK116216], the % viability in the data set on HeLa turned out to be 84.5%. Also, the viability at 28.5 h, 10 µM in “in vitro” turned out to be 98.6%.
For `COc1ccc(C(CC(=O)O)NC(=O)c2ccccc2)cc1` (stereo not drawn) [CBK261121] the same measures were 93.9% and 89.3%.
For `C[C@@H]1CN2C[C@H](O)CC2CN1Cc1cccc(C(F)(F)F)c1` (stereo partly drawn) [CBK285413] the same measures were 88.1% and 91.7%.
Take `COCCn1cc(CN2CC3CCCN3C[C@H]2C)c2ccccc21` (stereo partly drawn) [CBK285427]: the % viability with HeLa came to 106%. Besides, in “in vitro”, the viability at 28.5 h, 10 µM was determined as 95.7%.
For `CCCc1[nH]nc(O)c1CCc1ccc(Cl)cc1Cl` [CBK075082] the same measures were 109% and 106%.
As to `CCOC(=O)N1CCC(NS(=O)(=O)c2ccc3ccccc3c2)CC1` [CBK045452], the % viability in the data set on HeLa is 93.1% and 96.6%. In “in vitro”, the viability at 28.5 h, 10 µM came to 92%.
As for `Cc1nnc(SCC(=O)Nc2ccc(CN3CCOCC3)cc2)s1` [CBK269849], the % viability in the data set with HeLa was 112%. Besides, the viability at 28.5 h, 10 µM in “in vitro” turned out to be 96.4%.
For `CCCNC(=O)[C@@H]1Cc2c([nH]c3ccccc23)[C@]2(CCN(CCOc3ccccc3)C2)N1` [CBK063172T] the same measures were 86% and 101%.
Take `CC1=C/C(=C(\C#N)C(N)=O)NC(c2ccccc2O)=N1` [CBK019764]: the % viability with HeLa stood at 95.3%. The viability at 28.5 h, 10 µM in the data set “in vitro” was determined as 111%.
For `NS(=O)(=O)c1ccc2nc(NC(=O)c3ccc(Cl)s3)sc2c1` [CBK287320] the same measures were 89.6% and 108%.
For `Cc1sc(NC(=O)C(F)(F)F)c(C(N)=O)c1C` [CBK027775] the same measures were 94.1% and 99.4%.
For `NCCc1c(C23CC4CC(CC(C4)C2)C3)[nH][nH]c1=O` [CBK288081] the same measures were 106% and 86.5%.
As to `COc1cccc(CN2C(=O)[C@H]3CCCN3C(=O)c3ccccc32)c1` [CBK282852], the % viability with HeLa stood at 106%. Further, the viability at 28.5 h, 10 µM in “in vitro” stood at 108%.
For `Cc1nc2ccccc2n1C(=O)c1sc2ccccc2c1Cl` [CBK020557] the same measures were 115% and 106%.
For `C[C@@H]1CN2CCCC2CN1Cc1cccs1` (stereo partly drawn) [CBK284550] the same measures were 98.3% and 85.6%.
As for `COc1ccc([C@@]23CC[C@@H](CNS(=O)(=O)c4cccc(Cl)c4)C[C@@H]2N(C)CC3)cc1OC` [CBK042202T], the % viability in the data set with HeLa worked out at 91.5%. Also, the viability at 28.5 h, 10 µM in the data set “in vitro” was determined as 99.8%.
For the molecule `O=C(O)/C(SC1=NC2=Nc3ccccc3C2N=N1)=C1/C(=O)Nc2ccccc21` (stereo not drawn) [CBK021943], in the data set with HeLa, the % viability was found to be 96%. The viability at 28.5 h, 10 µM in the data set “in vitro” was determined as 100%.
For `C[C@@H](Cn1c(=O)oc2ccccc21)NC(=O)Cc1cccs1` [CBK284533], the % viability with HeLa turned out to be 79.8%. In addition, in the data set “in vitro”, the viability at 28.5 h, 10 µM stood at 92.9%.
In the case of `CN(C)S(=O)(=O)c1cc(C(=O)O)c(Cl)cc1Cl` [CBK113173], the % viability with HeLa turned out to be 94%. Further, the viability at 28.5 h, 10 µM in “in vitro” turned out to be 101%.
